One compound from patent US7439356B2, “Substituted indan derivatives” (AstraZeneca AB, priority 1997, dated 2008) can be followed below.

One may read the melting point as the temperature, or range, at which the solid turns liquid.

Consider `CN1CCN(c2cccc3c2CC(C(=O)Nc2ccc(N4CCOCC4)cc2)C3)CC1` (stereo not shown) [Example 4, 4-(4-Methylpiperazin-1-yl)-N-(4-morpholinophenyl)indan-2-carboxamide], for which the melting point was 248 to 249 °C.
